System: pseudorabies virus (PRV)
Set-up: species or system pigs
Settings: pig, in vivo

| Sequence | protection from mortality caused by challenge with virulent PRV |
| --- | --- |
| KKSVRGKGKGQKRKRKKSRYKSWSV [VEGF peptide] | protected the animals from mortality |
| YVRVRRPPKGKHRKFKHTH [PDGF peptide] | protected the animals from mortality |
